Non-standard residues stand in square brackets, D forms with d. Residues, ends and D or L forms follow the SMILES beside them. Phe(4-I) = N[C@@H](Cc1ccc(I)cc1)C(=O)O; Nle = CCCC[C@H](N)C(=O)O; dAbu = CC[C@@H](N)C(=O)O
Columns and labels:
human MC3R = molecular target: T1, human MC3R (Homo sapiens, UniProt P41968); assay: Intracellular cAMP levels in live cells, MC3R agonist activity; assay type: cell-based; conditions: cAMP split-luciferase reporter cell line stably expressing human MC3R; direct agonist effect, measurement window 1
T1 construct: expressed in transfected cells
Description: The stable cell lines were grown and maintained in selection media consisting of Dulbecco's modified Eagle media (DMEM) with 4.5 g/l D-glucose, and 4 mM L-glutamine (Thermo Fisher Scientific, Waltham, MA), supplemented with 10% fetal bovine serum, 100 units/ml penicillin, 100 μg/ml streptomycin, 2.5 μg/ml amphotericin B, 200 μg/ml hygromycin B (for positive selection of the GScAMP22f luciferase reporter), and Geneticin™ (G418) 700 μg/ml (for MC3R or MC4R selection). Actual serum concentration during the assay is estimated to be about 1%. Cell line identity is routinely verified by qPCR and MC3R- and MC4R-specific oligonucleotides.
The assay for the determination of the CAMP response in live cells was described previously. […] Ccells were seeded at a density of 20,000 cells per well using 384-well poly-D lysine-coated, clear bottom, and black-wall assay plates (Corning Inc. Corning, NJ). Cells were allowed to attach to the plates for 18 to 24 h after which growth media was removed and 20 ul of 4% D-luciferin (Promega) in CO2 independent, serum-free medium (Thermo Fisher Scientific) was added to each well. […] Intracellular cAMP levels were measured using an FDSS 7000EX Functional Drug Screening System (Hamamatsu Photonics, Hamamatsu, Japan) in the Center for Chemical Genomics at the Life Sciences Institute. This instrument allowed the in-line addition of test-peptides and receptor agonists while simultaneously acquiring the luminescence signal from live cells. […] A submaximal forskolin (20 μM) concentration was also included to serve as a normalization reference to account for cell number variations and differences in assay transducer efficiency between cell lines.
With this set up it was possible to evaluate the direct agonist effect of the test-peptides on the MC3R and MC4R cell lines during measurement window 1, while the antagonist profile in the presence of EC90 α-MSH was determined on measurement window 2. […] EC50 or IC50 potency values were determined by non-linear regression by fitting the data to a sigmoid four-parameter variable slope model using the GraphPad Prism version 8.4 software package (San Diego CA).

human MC4R = human MC4R (Homo sapiens, UniProt P32245); assay: Intracellular cAMP levels in live cells, MC3R selectivity relative to MC4R; assay type: cell-based; conditions: cAMP assays in human MC3R and human MC4R stable cell lines
in vitro = assay: in vitro
Description: Pooled mouse plasma was prepared and stored at −80° C. prior to use. 396 μL mouse plasma was incubated at 37° C. for 5 minutes in 1.5 mL microcentrifuge tubes. 4 μL of 100 μM test or control compound/peptide was added to each tube and incubated for 0.5, 15, 30, 60, 120, or 240 minutes. An aliquot of 40 μL of each reaction was stopped by the addition of 4 volume of cold acetonitrile containing 200 ng/mL of Setmelanotide as an internal standard (IS). The incubation solution was centrifuged at 3500 rpm for 10 minutes to precipitate protein. The supernatant was used for LC/MS/MS analysis. The natural log peak area ratio (compound peak […] area/internal standard peak area) was plotted against time and the gradient of the line determined.

T1 sequence (P41968 whole entry): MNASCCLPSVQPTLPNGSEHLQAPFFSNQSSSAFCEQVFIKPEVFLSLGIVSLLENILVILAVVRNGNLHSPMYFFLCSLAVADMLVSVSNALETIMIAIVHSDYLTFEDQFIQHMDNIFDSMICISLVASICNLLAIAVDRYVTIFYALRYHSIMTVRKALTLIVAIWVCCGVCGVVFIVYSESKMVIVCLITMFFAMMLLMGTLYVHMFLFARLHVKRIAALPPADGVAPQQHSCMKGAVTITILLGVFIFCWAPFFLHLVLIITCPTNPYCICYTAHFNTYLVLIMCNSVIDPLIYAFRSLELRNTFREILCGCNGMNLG
Sequence of human MC4R (P32245 whole entry): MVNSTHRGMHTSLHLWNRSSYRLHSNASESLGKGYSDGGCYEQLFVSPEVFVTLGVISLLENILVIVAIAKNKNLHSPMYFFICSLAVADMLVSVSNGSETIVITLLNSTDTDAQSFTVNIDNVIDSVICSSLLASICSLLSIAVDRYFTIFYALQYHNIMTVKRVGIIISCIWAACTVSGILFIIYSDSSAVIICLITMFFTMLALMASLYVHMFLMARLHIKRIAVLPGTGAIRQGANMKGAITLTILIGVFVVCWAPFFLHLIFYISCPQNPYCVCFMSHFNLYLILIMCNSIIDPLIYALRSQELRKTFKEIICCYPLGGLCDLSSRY

## CCCC[C@H](NC(=O)[C@@H](NC(=O)[C@@H](N)Cc1ccc(O)cc1)C(C)C)C(=O)N[C@H](Cc1ccccc1)C(=O)N[C@@H](Cc1c[nH]cn1)C(=O)N[C@@H](Cc1ccccc1)C(=O)N[C@@H](CCCNC(=N)N)C(=O)N[C@H](Cc1c[nH]c2ccccc12)C(=O)N[C@@H](CC(=O)O)C(=O)N[C@@H](CCCNC(=N)N)C(=O)N[C@@H](Cc1ccccc1)C(=O)NCC(=O)O [CTX-1136, Tyr-Val-Nle-D-Phe-His-Phe-Arg-D-Trp-Asp-Arg-Phe-Gly] (H-YV[Nle][dF]HFR[dW]DRFG-OH)
Human MC3R
  EC50: 1.9 nM
Human MC4R
  MC3R selectivity (relative to MC4R): 37

## CCCC[C@H](NC(=O)[C@@H](NC(=O)[C@H](N)Cc1ccc(O)cc1)C(C)C)C(=O)N[C@H](C)C(=O)N[C@@H](Cc1c[nH]cn1)C(=O)N[C@@H](Cc1ccccc1)C(=O)N[C@@H](CCCNC(=N)N)C(=O)N[C@H](Cc1c[nH]c2ccccc12)C(=O)N[C@@H](CC(=O)O)C(=O)N[C@@H](CCCNC(=N)N)C(=O)N[C@@H](Cc1ccccc1)C(=O)NCC(=O)O [CTX-1125, D-Tyr-Val-Nle-D-Ala-His-Phe-Arg-D-Trp-Asp-Arg-Phe-Gly] (H-[dY]V[Nle][dA]HFR[dW]DRFG-OH)
Human MC3R
  EC50: 1.7 nM
In vitro; mouse, plasma
  half-life at 1 µM: 2.35 h
  remaining at 5 min, 1 µM: 93.2%
  remaining at 0.25 h, 1 µM: 105%
  remaining at 0.5 h, 1 µM: 105%
  remaining at 1 h, 1 µM: 103%
  remaining at 2 h, 1 µM: 79.2%
  remaining at 4 h, 1 µM: 28.8%
In vitro; pooled mouse plasma, 37° C., 0 min
  Mouse Plasma Stability, time point 0 min: 100%
Human MC4R
  MC3R selectivity (relative to MC4R): 747

## CCCC[C@H](NC(C)=O)C(=O)N[C@H](C)C(=O)N[C@@H](Cc1c[nH]cn1)C(=O)N[C@@H](Cc1ccccc1)C(=O)N[C@@H](CCCNC(=N)N)C(=O)N[C@H](Cc1c[nH]c2ccccc12)C(=O)N[C@@H](Cc1ccccc1)C(=O)N[C@@H](CCCNC(=N)N)C(=O)N[C@@H](Cc1ccccc1)C(=O)NCC(=O)O [CTX-1529, Nle-D-Ala-His-Phe-Arg-D-Trp-Phe-Arg-Phe-Gly] (Ac-[Nle][dA]HFR[dW]FRFG-OH)
Human MC3R
  EC50: 4.8 nM
Human MC4R
  MC3R selectivity (relative to MC4R): 82

## CCCC[C@H](NC(C)=O)C(=O)N[C@H](C)C(=O)N[C@@H](Cc1c[nH]cn1)C(=O)N[C@@H](Cc1ccccc1)C(=O)N[C@@H](CCCNC(=N)N)C(=O)N[C@H](Cc1c[nH]c2ccccc12)C(=O)N[C@@H](C)C(=O)N[C@@H](CCCNC(=N)N)C(=O)N[C@@H](Cc1ccccc1)C(=O)NCC(=O)O [CTX-1528, Nle-D-Ala-His-Phe-Arg-D-Trp-Ala-Arg-Phe-Gly] (Ac-[Nle][dA]HFR[dW]ARFG-OH)
Human MC3R
  EC50: 1.9 nM
Human MC4R
  MC3R selectivity (relative to MC4R): 182

## CCCC[C@H](NC(=O)[C@@H](NC(=O)[C@@H](N)Cc1ccc(O)cc1)C(C)C)C(=O)N[C@H](CC)C(=O)N[C@@H](Cc1c[nH]cn1)C(=O)N[C@@H](Cc1ccccc1)C(=O)N[C@@H](CCCNC(=N)N)C(=O)N[C@H](Cc1c[nH]c2ccccc12)C(=O)N[C@@H](CC(=O)O)C(N)=O [CTX-1131, Tyr-Val-Nle-D-Abu-His-Phe-Arg-D-Trp-Asp] (H-YV[Nle][dAbu]HFR[dW]D-NH2)
Human MC3R
  EC50: 6.6 nM
Human MC4R
  MC3R selectivity (relative to MC4R): 65

## CCCC[C@H](NC(C)=O)C(=O)N[C@H](C)C(=O)N[C@@H](Cc1c[nH]cn1)C(=O)N[C@@H](Cc1ccccc1)C(=O)N[C@@H](CCCNC(=N)N)C(=O)N[C@H](Cc1c[nH]c2ccccc12)C(=O)N[C@H](Cc1ccccc1)C(=O)N[C@@H](CCCNC(=N)N)C(=O)N[C@@H](Cc1ccccc1)C(=O)NCC(=O)O [CTX-1531, Nle-D-Ala-His-Phe-Arg-D-Trp-D-Phe-Arg-Phe-Gly] (Ac-[Nle][dA]HFR[dW][dF]RFG-OH)
Human MC3R
  EC50: 357 nM
Human MC4R
  MC3R selectivity (relative to MC4R): 8

## CCCC[C@H](NC(C)=O)C(=O)N[C@H](C)C(=O)N[C@@H](Cc1c[nH]cn1)C(=O)N[C@@H](Cc1ccccc1)C(=O)N[C@@H](CCCNC(=N)N)C(=O)N[C@H](Cc1c[nH]c2ccccc12)C(=O)NCC(=O)N[C@@H](CCCCN)C(=O)N1CCC[C@H]1C(=O)N[C@H](C(N)=O)C(C)C [CTX-1164, Nle-D-Ala-His-Phe-Arg-D-Trp-Gly-Lys-Pro-Val] (Ac-[Nle][dA]HFR[dW]GKPV-NH2)
Human MC3R
  EC50: 1.5 nM
Human MC4R
  MC3R selectivity (relative to MC4R): 83

## CCCC[C@H](NC(C)=O)C(=O)N[C@H](C)C(=O)N[C@@H](Cc1c[nH]cn1)C(=O)N[C@@H](Cc1ccc(I)cc1)C(=O)N[C@@H](CCCNC(=N)N)C(=O)N[C@H](Cc1c[nH]c2ccccc12)C(=O)N[C@@H](CC(=O)O)C(=O)N[C@@H](CCCNC(=N)N)C(=O)N[C@@H](Cc1ccccc1)C(=O)NCC(=O)O [CTX-1167, Nle-D-Ala-His-Phe(4-I)-Arg-D-Trp-Asp-Arg-Phe-Gly] (Ac-[Nle][dA]H[Phe(4-I)]R[dW]DRFG-OH)
Human MC3R
  EC50: 4.8 nM
Human MC4R
  MC3R selectivity (relative to MC4R): 937

## CCCC[C@H](NC(=O)[C@@H](NC(=O)[C@@H](N)Cc1ccc(O)cc1)C(C)C)C(=O)N[C@H](Cc1ccccc1)C(=O)N[C@@H](Cc1c[nH]cn1)C(=O)N[C@@H](Cc1ccccc1)C(=O)N[C@@H](CCCNC(=N)N)C(=O)N[C@H](Cc1c[nH]c2ccccc12)C(=O)N[C@@H](CC(=O)O)C(N)=O [CTX-1132, Tyr-Val-Nle-D-Phe-His-Phe-Arg-D-Trp-Asp] (H-YV[Nle][dF]HFR[dW]D-NH2)
Human MC3R
  EC50: 3.9 nM
Human MC4R
  MC3R selectivity (relative to MC4R): 6.8

## CCCC[C@H](NC(C)=O)C(=O)N[C@H](C)C(=O)N[C@@H](Cc1c[nH]cn1)C(=O)N[C@@H](Cc1ccc(I)cc1)C(=O)N[C@@H](CCCNC(=N)N)C(=O)N[C@H](Cc1c[nH]c2ccccc12)C(=O)NCC(N)=O [CTX-1543, Nle-D-Ala-His-Phe(4-I)-Arg-D-Trp-Gly] (Ac-[Nle][dA]H[Phe(4-I)]R[dW]G-NH2)
Human MC3R
  EC50: 3.1 nM
Human MC4R
  MC3R selectivity (relative to MC4R): 202

## CCCC[C@H](NC(=O)CNC(=O)COCCOCCNC(=O)CNC(=O)CCc1ccc(I)cc1)C(=O)N[C@H](C)C(=O)N[C@@H](Cc1c[nH]cn1)C(=O)N[C@@H](Cc1ccccc1)C(=O)N[C@@H](CCCNC(=N)N)C(=O)N[C@H](Cc1c[nH]c2ccccc12)C(=O)N[C@@H](CC(=O)O)C(=O)N[C@@H](CCCNC(=N)N)C(=O)N[C@@H](Cc1ccccc1)C(=O)NCC(=O)O [CTX-1148, Gly-Nle-D-Ala-His-Phe-Arg-D-Trp-Asp-Arg-Phe-Gly]
Human MC3R
  EC50: 1.5 nM
Human MC4R
  MC3R selectivity (relative to MC4R): 1197

## CCCC[C@H](NC(C)=O)C(=O)N[C@H](C)C(=O)N[C@@H](Cc1c[nH]cn1)C(=O)N[C@@H](Cc1ccccc1)C(=O)N[C@@H](CCCNC(=N)N)C(=O)N[C@H](Cc1c[nH]c2ccccc12)C(=O)N[C@@H](CC(=O)O)C(=O)N[C@@H](CCCNC(=N)N)C(=O)N[C@@H](Cc1ccccc1)C(=O)NCC(=O)O [CTX-1122, Nle-D-Ala-His-Phe-Arg-D-Trp-Asp-Arg-Phe-Gly] (Ac-[Nle][dA]HFR[dW]DRFG-OH)
Human MC3R
  EC50: 1.2 nM
Human MC4R
  MC3R selectivity (relative to MC4R): 7,703

## CSCC[C@H](N)C(=O)NCC(=O)N[C@@H](Cc1c[nH]cn1)C(=O)N[C@@H](Cc1ccccc1)C(=O)N[C@@H](CCCNC(=N)N)C(=O)N[C@H](Cc1c[nH]c2ccccc12)C(=O)N[C@@H](CC(=O)O)C(=O)N[C@@H](CCCNC(=N)N)C(=O)N[C@@H](Cc1ccccc1)C(=O)NCC(=O)O [CTX-1547, Met-Gly-His-Phe-Arg-D-Trp-Asp-Arg-Phe-Gly] (H-MGHFR[dW]DRFG-OH)
Human MC3R
  EC50: 1.5 nM
Human MC4R
  MC3R selectivity (relative to MC4R): 54

## CCCC[C@H](NC(C)=O)C(=O)N[C@H](C)C(=O)N[C@@H](Cc1c[nH]cn1)C(=O)N[C@@H](Cc1ccc(I)cc1)C(=O)N[C@@H](CCCNC(=N)N)C(=O)N[C@H](Cc1c[nH]c2ccccc12)C(=O)N[C@@H](CC(=O)O)C(=O)N[C@@H](CCCNC(=N)N)C(=O)N[C@@H](Cc1ccccc1)C(N)=O [CTX-1169, Nle-D-Ala-His-Phe(4-I)-Arg-D-Trp-Asp-Arg-Phe] (Ac-[Nle][dA]H[Phe(4-I)]R[dW]DRF-NH2)
Human MC3R
  EC50: 4.8 nM
Human MC4R
  MC3R selectivity (relative to MC4R): 200
